Laboratory results: US20230248705A1, “ADMINISTRATION OF MODULATORS OF 5-HT AND / OR AMPA RECEPTORS FOR TREATING NEUROLOGICAL CONDITIONS” (THE ROYAL INSTITUTION FOR THE ADVANCEMENT OF …, priority 2020, published 2023)
“Also recorded” adds a separate entry of the source.

Legend:
male C57BL/6J mice [1] = assay: direct social interaction test (DSI); format: in vivo
Experimental: (§1) The increase in social interaction was observed 24 hours after the last injection in two validated paradigms of social behavior: the direct social interaction test (FIG. 1A) and the three-chamber test (FIG. 1B).

male C57BL/6J mice [2] = assay: three chambers test (TCT); format: in vivo; conditions: repeated LSD 25-35 μg/kg per day for 7 days; vs veh; FIG. 1B
Experimental: as §1

[3] = system: glutamatergic and serotonergic neurotransmission in the medial prefrontal cortex (mPFC) and in the DRN; assay: electrophysiological experiments in mPFC and DRN; format: in vivo, mice; conditions: repeated regimen of LSD
[4] = system: mammalian target of rapamycin complex (mTOR); assay: mTOR phosphorylation in the mPFC; format: in vivo, mice
mice [5] = assay: light-dark box test after chronic restraint stress; format: in vivo; conditions: repeated LSD 30 μg/kg, FIG. 2A
Experimental: (§2) A paradigm of repeated stress-induced anxiety-like behavior was employed, in order to mimic anxious states induced by chronic stressor exposure in humans. Chronic restraint stress was chosen for its ability to reliably and relatively quickly induce anxiety-like behavior. Briefly, mice were placed in well ventilated plexiglass restrainers for 2 hours per day, for 15 days, then returned to a horizontal resting position on an open bench. During the procedure, the animals had no access to food and water. Control mice were left undisturbed in their home cage. This regimen duration was chosen given that, in pilot experiments, it represented the minimum duration of restraint stress which exacerbated anxiety-like behavior.
For the light-dark box test, an apparatus consisting of a light, open topped, opaque, plexiglass box (27×27×30 cm) connected to a dark, closed topped, opaque, plexiglass box (18×27×30 cm) was used. The light and dark boxes were connected by a small opening (12×5 cm) which allowed the mouse to cross between the two compartments. The light box was illuminated by a 100 W desk lamp. Each mouse was placed in the illuminated box and observed for 5 min. When the four paws were in the light box, the mouse was considered to be in the light compartment. […]

mice [6] = assay: novelty suppressed feeding test after chronic restraint stress; format: in vivo; conditions: repeated LSD 30 μg/kg; chronic restraint stress mice vs vehicle-treated stressed mice; FIG. 2B
Experimental: as §2
This procedure was used to measure neohypophagia (the anxiety-induced inhibition of feeding upon exposure to a novel environment). This test is used to validate the acute effects of putative anxiolytics. Mice were food-deprived for 48-hours; subsequently, each mouse was placed in a brightly illuminated (100 W, 350 Ix) open arena (40×40 cm, white-painted floor with walls 30 cm high), containing standard chow (3 pellets) in the center of the arena. The latency to initiate feeding (in seconds) was used as an index of anxiety-like behavior. […]

dopamine D2 receptor = dopamine D2 receptor (Homo sapiens, UniProt P14416); conditions: read-out: affinity (ki), partial agonist; cited from earlier work
Chain of dopamine D2 receptor (P14416 whole entry, species assumed): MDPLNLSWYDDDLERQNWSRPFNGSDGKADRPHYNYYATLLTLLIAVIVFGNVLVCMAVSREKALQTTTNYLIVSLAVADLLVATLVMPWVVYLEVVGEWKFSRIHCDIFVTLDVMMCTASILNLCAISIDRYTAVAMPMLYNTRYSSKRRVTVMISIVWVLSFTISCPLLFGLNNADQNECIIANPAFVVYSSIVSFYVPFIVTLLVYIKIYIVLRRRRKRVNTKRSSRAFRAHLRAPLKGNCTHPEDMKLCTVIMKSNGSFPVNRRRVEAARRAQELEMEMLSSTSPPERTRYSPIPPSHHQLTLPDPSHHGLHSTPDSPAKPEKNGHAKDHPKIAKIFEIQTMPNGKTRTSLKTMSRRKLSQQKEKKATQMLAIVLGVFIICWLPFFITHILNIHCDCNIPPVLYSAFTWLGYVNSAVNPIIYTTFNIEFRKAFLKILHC

healthy volunteers = conditions: cited from earlier work
[7] = system: 5-HT neurons originating in the Dorsal Raphe Nucleus (DRN); conditions: doses 5-30 μg/kg; mice; cited from earlier work
dopaminergic system = conditions: doses 30-120 μg/kg, 60-120 μg/kg; leading to psychotic-like hallucinogenic symptoms; cited from earlier work
mice [8] = assay: head-twitches after acute dose; conditions: FIG. 3

CCN(CC)C(=O)[C@@H]1C=C2c3cccc4[nH]cc(c34)C[C@H]2N(C)C1 [LSD, Lysergic acid diethylamide]
social interaction (male C57BL/6J mice [1]; lower doses 5, 10 μg/kg for 3 days): non-significant increase in social interaction
social interaction / interaction time toward the unfamiliar mouse (male C57BL/6J mice [1]; repeated LSD 25-35 μg/kg per day for 7 days, 24 hours after last injection, vs veh (saline), FIG. 1A): increased social interaction; also recorded: increases interaction time
social behavior (male C57BL/6J mice [1]; single administration, FIG. 1A): did not produce any effect on social behavior
preference for social novelty / sniffing time toward a novel mouse (male C57BL/6J mice [2]): promoted the preference for the social novelty; also recorded: promotes preference for social novelty
glutamatergic and serotonergic neurotransmission [3]: potentiates both glutamatergic and serotonergic neurotransmission
phosphorylation levels of mTOR [4]: increased the phosphorylation levels
anxiety-like behavior: number of transitions between light and dark compartments (mice [5]): prevents chronic stress-induced anxiety-like behavior; also recorded: number of entries similar to the control mice treated with the vehicle; also recorded: normalized the transition between the dark and the light compartment
anxiety-like behavior: latency to feed (mice [6]): prevents chronic stress-induced anxiety-like behavior; also recorded: reduced latency to feed; also recorded: decreased latency to feed
Ki (dopamine D2 receptor): 25 nM
optimism, mood and trait openness (healthy volunteers; 2 weeks after LSD administration): increased optimism, mood and trait openness
mood and social effects (healthy volunteers; after 200 μg of LSD): Positive mood changes and altruistic/positive social effects
social behavior (healthy volunteers; healthy volunteers): increase social behavior
activity of 5-HT neurons [7]: decreasing the activity of 5-HT neurons
dopaminergic system activity (dopaminergic system): inhibit the dopaminergic system
hallucinogenic effects (head-twitches) (mice [8]; acute (single) dose 15 μg/kg or less): did not provide hallucinogenic effects
adverse events (hallucinations, head twitches) (mice [8]; acute (single) dose 30 μg/kg): produces adverse events
adverse events (hallucinations, head twitches) (mice [8]; acute (single) dose 60 μg/kg): produces adverse events
head twitches versus dose (mice [8]; as an acute (single) dose is increased): increase in head twitches
